Where two headings read alike, the source gives them in different places.
Experiments:
[1] = tested on: gram positive microorganisms; settings: cited from earlier work
[2] = tested on: gram negative bacteria; settings: cited from earlier work
[3] = tested on: Pseudomonas Aeruginosa; experiment: Effect of biocide-impregnated fabric on Pseudomonas Aeruginosa population; format: cell-based; settings: zinc pyridinethione 0.85%, dichlorophen 0.85%, combination 0.5% + 0.5% of dry fabric weight
Text: A biocidal cloth according to the invention was subjected to a standard quantitative test for microorganisms, “Assessment of Antibacterial Finishes on Textile Materials”: Test Method AATCC 100-1993. This test is specifically designed for the assessment of the biocidal properties of fabric treatments. These treatments are designed to kill microorganisms within the fabric, rather than on surfaces which come into contact with the fabric.
The weights are given relative to the weight of dry fabric.

[4] = cited from earlier work; for Oxidising Agents: compatibility with oxidising agents; for Reducing Agents: compatibility with reducing agents
[5] = in vivo; cited from earlier work
[6] = acute toxicity, cited from earlier work; for LD50 Subcut: subcutaneous
[7] = cited from earlier work
[8] = tested on: Fish; settings: in vivo; cited from earlier work

| Molecule | Effectiveness against gram positive [1] | Effectiveness against gram negative [2] | Change in bacterial population, DAY 1 (positive = increase, negative = decrease) [3] | Change in bacterial population, DAY 2 (positive = increase, negative = decrease) [3] | Oxidising Agents [4] | Reducing Agents [4] | Teratogenicity [5] | LD 50 IV [6] [mg/kg] | LD50 Dermal [6] [mg/kg] | LD50 Oral [6] [mg/kg] | LD50 Subcut [6] [mg/kg] | Irritancy dermal ([7]; dermal / skin) | Irritancy dermal ([7]; dermal / skin, listed as zinc pyridinethione) | Irritancy eye ([7]; eye) | Irritancy eye ([7]; eye, listed as zinc pyridinethione) | Fish Toxicity [8] [mg/lt] | Irritancy dermal ([7]; in vivo) | Irritancy eye ([7]; in vivo) |
| --- | --- | --- | --- | --- | --- | --- | --- | --- | --- | --- | --- | --- | --- | --- | --- | --- | --- | --- |
| zinc pyridinethione | effective | limited effectiveness | +0.845 | +0.35 | decomposes | decomposes | reduced wt | 10 | 100 | 160 | 730 | Moderate dermal | mildly irritating | Severe eye | severely so | – | – | – |
| Oc1ccc(Cl)cc1Cc1cc(Cl)ccc1O [DICHLOROPHEN, dichlorophen] | particularly effective | some grain negative activity | +0.439 | +2.12 | incompatible | no effect | no effect | 17 | 5000 | 3300 | >3000 | – | – | – | – | 23 | Slight dermal | Moderate eye |
| Oc1cc(Cl)ccc1Oc1ccc(Cl)cc1Cl [Triclosan, triclosan] | particularly effective | some grain negative activity | – | – | – | – | – | – | – | – | – | – | – | – | – | – | – | – |

Source: patent publication US6399560B1, “Biocide and biocidal cloth containing a metal pyridinethione and additional biocide” (Novapharm Research (Australia) Pty Ltd., priority 1997, dated 2002)
